Numbers after ± are expanded uncertainties.
Details: Liquid

Compound: FCF [difluoromethane]
- vapor or sublimation pressure (283.19 K): 1111 ± 2 kPa
- vapor or sublimation pressure (288.21 K): 1286 ± 2 kPa
- vapor or sublimation pressure (293.24 K): 1481 ± 3 kPa
- vapor or sublimation pressure (298.26 K): 1697 ± 3 kPa
- vapor or sublimation pressure (303.27 K): 1935 ± 3 kPa
- vapor or sublimation pressure (308.28 K): 2197 ± 4 kPa
- vapor or sublimation pressure (313.3 K): 2485 ± 4 kPa
- vapor or sublimation pressure (318.28 K): 2801 ± 5 kPa
- vapor or sublimation pressure (323.3 K): 3147 ± 5 kPa
- vapor or sublimation pressure (328.31 K): 3526 ± 6 kPa
- vapor or sublimation pressure (343.26 K): 4892 ± 8 kPa

Compound: CCC [propane]
- vapor or sublimation pressure (277.17 K): 536 ± 1 kPa
- vapor or sublimation pressure (283.22 K): 638 ± 2 kPa
- vapor or sublimation pressure (288.26 K): 734 ± 2 kPa
- vapor or sublimation pressure (293.27 K): 838 ± 2 kPa
- vapor or sublimation pressure (298.3 K): 955 ± 2 kPa
- vapor or sublimation pressure (302.27 K): 1055 ± 2 kPa
- vapor or sublimation pressure (308.8 K): 1236 ± 2 kPa
- vapor or sublimation pressure (311.8 K): 1326 ± 2 kPa
- vapor or sublimation pressure (313.24 K): 1370 ± 2 kPa
- vapor or sublimation pressure (318.22 K): 1537 ± 3 kPa
- vapor or sublimation pressure (323.22 K): 1716 ± 3 kPa
- vapor or sublimation pressure (328.26 K): 1911 ± 3 kPa
- vapor or sublimation pressure (333.29 K): 2120 ± 3 kPa
- vapor or sublimation pressure (338.31 K): 2346 ± 4 kPa
- vapor or sublimation pressure (343.26 K): 2591 ± 4 kPa
- vapor or sublimation pressure (348.31 K): 2852 ± 5 kPa
- vapor or sublimation pressure (353.41 K): 3134 ± 5 kPa

— the NIST ThermoML archive (doi:10.1021/je020115d)
